Data set [1] is described as follows: DTNB assay: rate of disulfide bond reduction. The format is biochemical. Further details: unit not given here. The note with it: 2nd order kinetic. On the procedure:
DTNB ASSAY: This assay determines the rate which a mucolytic agent can reduce a disulfide bond using 5,5-Dithiobis(2-nitrobenzoic acid). DTNB in various pH buffers and allows comparison of the kinetic rates of reducing agents. First, reducing agent stock solutions (30 mM) were made up in DMSO. Each compound stock solution was diluted, […] in 1 ml 50 mM Tris-HCl buffer, pH 7.5, and then added in a 1:1 volumetric ratio to a solution of 100 mM DTNB in 50 mM Tris-HCl buffer, pH 7.5. Max Abs412 was measured and then utilized to calculate the activity concentration. If the observed activity concentrations differed from expected activity concentrations by more than 5%, the volume was accordingly adjusted to kinetically test the rate in the next step. After having added the reducing agents, diluted in a range of pH buffer solutions (pH 6.0-7.5), to 45 mM DTNB in 50 mM Tris-HCl and measured the Abs412 for 5 min rates were calculated as a 2nd order kinetic.

The subject of another data set is sheep treated with NE. Kind of data set: TMV studies in sheep (neutrophil elastase model of acute bronchitis). The data set is classed as in vivo. The note with it: 1 μmole/kg by aerosol after neutrophil elastase (NE). How it is done: Test articles were administered to the pulmonary surfaces as an inhalation aerosol. For human neutrophil Elastase (HNE) studies, tracheal mucus velocity (TMV) was measured at 1 and 2 hours after HNE (but before drug); and 1, 30, 60, 90, and 120 minutes post-aerosol administration of Compound G.
The measurements of TMV were made as follows: Eight to 10 radiopaque Teflon disks (˜1 mm in diameter, 0.8 mm thick, and weighing between 1.5-2 mg) were introduced into the trachea via an endotracheal tube (ETT). The particles were insufflated by a catheter connected to a source of compressed air (flow rate of 3-4 ml/min at 50 psi). The catheter was removed following insufflation without contacting the tracheal surface. To minimize the ETT effects on TMV, the cuff was deflated throughout the study except for the period of drug delivery. The disk movements were recorded using videotaped fluoroscopy, and individual disk velocities were calculated by measuring the distance traveled by each disk over a 60-s period. A collar containing radiopaque markers of predetermined length was placed around the animal's neck, which was used as a standard to correct for magnification effects intrinsic to the fluoroscopy unit. The mean value of disk velocities was calculated for each time point. To avoid dehydration, the sheep were periodically gavaged with tap water via a nastrogastric tube. […]

Data set [2] is described as follows: Elimination of inhaled NAC from the lungs in animal studies. The data set is classed as in vivo. The note with it: inhaled or intranasal, 14C-labeled NAC, administered by inhalation, animal studies (unpublished observation). An excerpt: NAC, as a topical pulmonary therapeutic agent, is not optimal for the reduction of mucin disulfide bonds. […] For example, in the pH environment of the airway surface (measured in the range of pH 6.0 to 7.2 in CF and COPD airways), NAC exists only partially in its reactive state as a negatively charge thiolate (Jayaraman S, Song Y, Vetrivel L, Shankar L, Verkman A S. Noninvasive in vivo fluorescence measurement of airway-surface liquid depth, salt concentration, and pH. J Clin Invest. 2001; 107(3):317-24) (FIG. 3). […] The relatively low reducing activity at of NAC physiologic airway pH and a the short half-life of NAC on the lung surface provide an explanation for the lack of strong clinical evidence for effective mucus reduction in mucus obstructive diseases.

Counter-ions that a name gives are not always drawn.

On to `N=C(N)NCCCC[C@@H](N)C(=O)NCCOc1cc(CS)c(CS)cc1OCCNC(=O)[C@H](N)CCCCNC(=N)N` [Compound G, (2R,2′R)-N,N′-(2,2′-(4,5-bis(mercaptomethyl)-1,2-phenylene)bis(oxy)bis(ethane-2,1-diyl))bis(2-amino-6-guanidinohexanamide) Hydrochloride], for which the “Kinetic Reaction Rates of Reduction of DTNB” value in data set [1] (pH 6) was found to be 5154. In addition, the “Duration of TMV restoration post-dosing” value with sheep treated with NE is 2 h. Moreover, in the data set with sheep treated with NE (compared with vehicle), the “Tracheal mucus velocity (TMV)” value is “restored TMV to normal, pre-NE levels”.
As to `CC(=O)N[C@@H](CS)C(=O)O` [NAC, N-acetyl cysteine, reference compound], the “Kinetic Reaction Rates of Reduction of DTNB” value came out at 10 in data set [1] (pH 6), 26 in data set [1] (pH 6.5), 69 in data set [1] (pH 7) and 230 in data set [1] (pH 7.5). The half-life in data set [2] was ~20 min.
Take `N=C(N)NCCCC[C@@H](N)C(=O)NCCCN(CCCNC(=O)[C@H](N)CCCCNC(=N)N)CCOc1ccc(CS)c(CS)c1` [Z, (2R,2′R)-N,N′-(3,3′-(2-(3,4-bis(mercaptomethyl)phenoxy)ethylazanediyl)bis(propane-3,1-diyl))bis(2-amino-6-guanidinohexanamide)]: the “Kinetic Reaction Rates of Reduction of DTNB” value in data set [1] (pH 6) is 7200; in data set [1] (pH 6.5), 10420; in data set [1] (pH 7), 10631; in data set [1] (pH 7.5), 18513.

Values taken from patent US9346753B2, “Dithiol mucolytic agents” (PARION SCIENCES, INC., priority 2013, dated 2016).
